Experimental data: ChEMBL document CHEMBL1201862, “PubChem BioAssay data set” (2004)
Values joined by “and” are separate entries in the source; they are usually repeats but may differ in a detail not shown here. Equal entries are not always repeated.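 Cells were grown in 96-well plates and exposed to each compound for 48 hours at five concentrations; endpoints were interpolated linearly between bracketing concentrations, or set to the highest concentration if not reached. GI50: concentration for 50% inhibition of growth.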 Active and inactive are the calls of the source. No stated cut-off is given here; in the data, active = GI50 up to about 1.1 µM and inactive = higher.

Experiments:
Assay in all cases: inhibition of tumour cell growth, NCI panel, 48 h
786-0 = test system: 786-0
MDA-MB-231 = test system: MDA-MB-231
TK-10 = test system: TK-10
A549 = test system: A549
OVCAR-3 = test system: OVCAR-3
HCC 2998 = test system: HCC 2998
Hs-578T = test system: Hs-578T
NCI-H460 = test system: NCI-H460
MOLT-4 = test system: MOLT-4
NCI-H23 = test system: NCI-H23
IGROV-1 = test system: IGROV-1
T47D = test system: T47D
KM12 = test system: KM12
SF-268 = test system: SF-268
HT-29 = test system: HT-29
MDA-MB-435 = test system: MDA-MB-435
SK-MEL-2 = test system: SK-MEL-2
Malme-3M = test system: Malme-3M
NCI-H522 = test system: NCI-H522

Measured: GI50

CC[C@]1(Cc2ccc(OC)c(OC)c2)CN(S(=O)(=O)c2ccc(C)cc2)C[C@@H]1OC(C)=O
inactive: 786-0 39.2 µM | MDA-MB-231 > 100 µM | TK-10 > 100 µM | A549 54.8 µM | OVCAR-3 67.8 µM | HCC 2998 > 100 µM | Hs-578T > 100 µM | NCI-H460 > 100 µM | MOLT-4 > 100 µM | NCI-H23 > 100 µM | IGROV-1 85.5 µM | T47D 58.5 µM | KM12 > 100 µM | SF-268 > 100 µM | HT-29 96.8 µM | MDA-MB-435 > 100 µM | SK-MEL-2 > 100 µM | Malme-3M > 100 µM

CC[C@H](C)[C@H](NC(=O)[C@H](Cc1ccc(O)cc1)NCC(F)(F)F)C(=O)OC(C)(C)C
inactive: 786-0 8.15 µM | MDA-MB-231 7.28 µM | TK-10 8.09 µM | A549 5.41 µM | HCC 2998 7.29 µM | Hs-578T 10.3 µM | NCI-H460 6.22 µM | MOLT-4 6.35 µM | NCI-H23 8.59 µM | IGROV-1 7.5 µM | T47D 4.51 µM | KM12 7.78 µM | NCI-H522 7.31 µM | SF-268 9.71 µM | HT-29 7.6 µM | MDA-MB-435 7 µM | SK-MEL-2 6.53 µM | Malme-3M 10.2 µM

CC1(C)Oc2ccc3c(=O)cc(-c4ccccc4)oc3c2C1C(=O)O (configuration not stated)
inactive: 786-0 > 100 µM | MDA-MB-231 > 100 µM | TK-10 > 100 µM | A549 > 100 µM | OVCAR-3 > 100 µM | HCC 2998 > 100 µM | Hs-578T > 100 µM | MOLT-4 > 100 µM | NCI-H23 > 100 µM | IGROV-1 > 100 µM | T47D > 100 µM | NCI-H522 > 100 µM | SF-268 > 100 µM | HT-29 > 100 µM | MDA-MB-435 > 100 µM | SK-MEL-2 > 100 µM | Malme-3M > 100 µM

CCCN(CCCc1ccccc1)CCc1ccc2[nH]c(=S)[nH]c2c1
inactive: 786-0 12.6 µM | MDA-MB-231 14.7 µM | TK-10 71.1 µM | A549 34 µM | OVCAR-3 37.1 µM | HCC 2998 13.3 µM | Hs-578T 39.8 µM | NCI-H460 13.2 µM | MOLT-4 11.3 µM | NCI-H23 40.6 µM | IGROV-1 14.1 µM | T47D 12.1 µM | KM12 26.1 µM | SF-268 52.4 µM | MDA-MB-435 18.7 µM | SK-MEL-2 19.3 µM | Malme-3M 12.9 µM

CC(C)=CCNc1ncnc2c1ncn2CCC(=O)OC(C)(C)C
inactive: 786-0 > 100 µM | MDA-MB-231 > 100 µM | TK-10 > 100 µM | A549 > 100 µM | OVCAR-3 > 100 µM | HCC 2998 > 100 µM | Hs-578T 12.4 µM | NCI-H460 > 100 µM | MOLT-4 14.2 µM | NCI-H23 > 100 µM | IGROV-1 > 100 µM | T47D 24.8 µM | KM12 > 100 µM | NCI-H522 > 100 µM | SF-268 > 100 µM | HT-29 > 100 µM | MDA-MB-435 > 100 µM | Malme-3M > 100 µM

O=S(=O)(O)CCCC1S(=O)(=O)OCCOS1(=O)=O
inactive: 786-0 > 100 µM | MDA-MB-231 > 100 µM | TK-10 > 100 µM | OVCAR-3 > 100 µM | HCC 2998 > 100 µM | Hs-578T > 100 µM | NCI-H460 > 100 µM | NCI-H23 > 100 µM | IGROV-1 > 100 µM | T47D > 100 µM | KM12 > 100 µM | NCI-H522 > 100 µM | SF-268 > 100 µM | HT-29 > 100 µM | MDA-MB-435 > 100 µM | Malme-3M > 100 µM

O=C1CCC2(O)C3Cc4ccc(Oc5nnnn5-c5ccccc5)c5c4C2(CCN3CC2CC2)C1O5 (configuration not stated)
inactive: 786-0 20 µM | MDA-MB-231 58.6 µM | TK-10 62.5 µM | A549 > 100 µM | OVCAR-3 46.7 µM | Hs-578T 28.9 µM | NCI-H460 56.5 µM | MOLT-4 21 µM | NCI-H23 > 100 µM | IGROV-1 > 100 µM | T47D 39.5 µM | KM12 > 100 µM | NCI-H522 23.3 µM | SF-268 34.7 µM | HT-29 26.4 µM | MDA-MB-435 19.9 µM | SK-MEL-2 22.1 µM | Malme-3M 17.8 µM

CCCCc1nc(C)oc1C(C)C
inactive: 786-0 > 100 µM | MDA-MB-231 > 100 µM | TK-10 > 100 µM | A549 > 100 µM | OVCAR-3 > 100 µM | HCC 2998 > 100 µM | Hs-578T > 100 µM | NCI-H460 > 100 µM | MOLT-4 > 100 µM | NCI-H23 > 100 µM | IGROV-1 > 100 µM | T47D > 100 µM | KM12 > 100 µM | NCI-H522 > 100 µM | SF-268 > 100 µM | HT-29 > 100 µM | MDA-MB-435 > 100 µM | Malme-3M > 100 µM

COc1ccc(C2=NN(C(=O)c3ccc(Cl)cc3)C(O)(c3cc(F)c(Cl)cc3Cl)C2)cc1OC (configuration not stated)
inactive: 786-0 17.8 µM | MDA-MB-231 > 100 µM | TK-10 86.7 µM | OVCAR-3 41.8 µM | HCC 2998 8.24 µM | Hs-578T 24 µM | NCI-H460 9.14 µM | MOLT-4 4.13 µM | NCI-H23 47.1 µM | IGROV-1 35.1 µM | T47D 6.27 µM | KM12 8.15 µM | NCI-H522 6.68 µM | SF-268 21.2 µM | HT-29 4.29 µM | MDA-MB-435 13.2 µM | SK-MEL-2 78.7 µM

O=C1C=CC(=NNc2ccccc2)C=CC1=O
inactive: 786-0 18.4 µM | MDA-MB-231 14.9 µM | TK-10 22.3 µM | A549 10.7 µM | OVCAR-3 10.3 µM | Hs-578T 11 µM | NCI-H460 11.3 µM | MOLT-4 3.1 µM | NCI-H23 14 µM | IGROV-1 7.94 µM | T47D 10.2 µM | KM12 12.4 µM | NCI-H522 13.1 µM | SF-268 16.3 µM | HT-29 13.6 µM | MDA-MB-435 12.9 µM | SK-MEL-2 15.1 µM | Malme-3M 13.4 µM

CC(O[Si](C)(C)C(C)(C)C)[C@H](NC(=O)OCC(Cl)(Cl)Cl)C(=O)O (some centres not stated)
inactive: 786-0 > 100 µM | MDA-MB-231 > 100 µM | TK-10 > 100 µM | A549 > 100 µM | OVCAR-3 79.6 µM | HCC 2998 > 100 µM | Hs-578T > 100 µM | NCI-H460 > 100 µM | MOLT-4 > 100 µM | NCI-H23 95.3 µM | IGROV-1 > 100 µM | T47D > 100 µM | KM12 56 µM | NCI-H522 78 µM | SF-268 > 100 µM | HT-29 > 100 µM | MDA-MB-435 > 100 µM | Malme-3M > 100 µM

Cc1ccc(C(=C2Sc3ccccc3S2)C(=C2Sc3ccccc3S2)c2ccc(C)s2)s1
inactive: 786-0 > 100 µM | MDA-MB-231 42.8 µM | TK-10 > 100 µM | A549 > 100 µM | OVCAR-3 > 100 µM | HCC 2998 > 100 µM | Hs-578T > 100 µM | MOLT-4 > 100 µM | NCI-H23 > 100 µM | IGROV-1 > 100 µM | T47D > 100 µM | KM12 > 100 µM | NCI-H522 > 100 µM | SF-268 > 100 µM | HT-29 > 100 µM | MDA-MB-435 > 100 µM | SK-MEL-2 > 100 µM | Malme-3M > 100 µM

O=[N+]([O-])c1ccccc1CSc1nc(O)c2nc[nH]c2n1
inactive: 786-0 > 100 µM | TK-10 > 100 µM and 79.8 µM | A549 > 100 µM | OVCAR-3 > 100 µM | Hs-578T 52.4 µM | NCI-H460 > 100 µM | MOLT-4 > 100 µM | NCI-H23 > 100 µM | IGROV-1 > 100 µM | T47D > 100 µM and 75.7 µM | KM12 > 100 µM | NCI-H522 > 100 µM and 58.7 µM | SF-268 > 100 µM | HT-29 72.6 µM | MDA-MB-435 > 100 µM and 55 µM | SK-MEL-2 > 100 µM | Malme-3M > 100 µM

CCN(CC)CCNc1n[n+]([O-])c2ccccc2[n+]1[O-]
inactive: 786-0 7.85 µM | TK-10 11.3 µM | OVCAR-3 7.21 µM | HCC 2998 2.07 µM | Hs-578T 28.6 µM | MOLT-4 2.02 µM | IGROV-1 1.81 µM | T47D 5.18 µM | KM12 9.2 µM | SF-268 10.7 µM | HT-29 5.94 µM | MDA-MB-435 12.5 µM | Malme-3M 6.76 µM

COc1c2c(c(OC)c3c1c(=O)c1ccccc1n3C)OCO2
inactive: 786-0 29.2 µM | MDA-MB-231 19.3 µM | TK-10 > 100 µM | A549 44.5 µM | OVCAR-3 5.51 µM | HCC 2998 5.2 µM | Hs-578T 4.79 µM | NCI-H460 8.49 µM | MOLT-4 7.85 µM | NCI-H23 10.6 µM | IGROV-1 7.87 µM | T47D 6.7 µM | KM12 3.25 µM | NCI-H522 2.23 µM | SF-268 18.5 µM | HT-29 17.5 µM | MDA-MB-435 2.28 µM | SK-MEL-2 > 19.9 µM

NC(=O)CC(N)c1nnn[nH]1 (configuration not stated)
inactive: 786-0 > 100 µM | MDA-MB-231 > 100 µM | TK-10 > 100 µM | A549 > 100 µM | OVCAR-3 > 100 µM | Hs-578T > 100 µM | NCI-H460 > 100 µM | MOLT-4 > 100 µM | NCI-H23 > 100 µM | IGROV-1 > 100 µM | T47D > 100 µM | KM12 > 100 µM | NCI-H522 > 100 µM | SF-268 > 100 µM | HT-29 > 100 µM | MDA-MB-435 > 100 µM | SK-MEL-2 > 100 µM | Malme-3M > 100 µM
